Values of other authors as cited in patent US5525603A, “Compositions, methods and kits for potentiating antitumor effect and for treating tumor” (priority 1991, dated 1996).

Legend:
[1] = tested on: oral cavity, gastrointestinal tissue; conditions: prolonged presence in the living body, continuous intravenous infusion of 5-FU alone
[2] = in combination with 5-FU or 5-FU derivative

Row | SMILES | disorder (inflammation) in the oral cavity, gastrointestinal tissue and the like [1] | effect on antitumor effect of 5-FU or 5-FU derivative [2] | inhibition of inflammation caused by 5-FU or 5-FU derivative [2]
1 | O=c1[nH]cc(F)c(=O)[nH]1 [5-FU, 5-fluorouracil] | likely to cause a disorder (inflammation) in the oral cavity, gastrointestinal tissue and the like |  | 
2 | O=C(O)c1nc(=O)[nH]c(=O)[nH]1 [oxonic acid] |  | reduces the antitumor effect of 5-FU or 5-FU derivative | can inhibit the occurrence of inflammation caused by 5-FU or 5-FU derivative
